How the values were obtained:
A549 cells = experiment: MTT anti-proliferative assay, A549; assay type: cell-based, human; conditions: Homo sapiens, A549, 48 h, mean ± SD of three experiments
Procedure: (§1) The antiproliferative activity of the synthesised derivatives of the 3-methylbenzofuran series (4a–d, 6a–c, 8a–c and 11) and the 3-(morpholinomethyl)benzofuran series (15a–c, 16a–b, 17a–b and 18) was evaluated against non-small cell lung carcinoma (NSCLC) A549 and NCI-H23 cell lines, following the procedures of the MTT assay. […] 1. Anti-proliferative action toward human […] cell lines […]
(§2) The two examined human non-small cell lung carcinoma cell lines (A549 and NCI-H23) have been obtained from American Type Culture Collection (ATCC). The cells were maintained in Dulbecco's modified Eagle's medium (DMEM) supplemented with 10% heat inactivated fetal calf serum (GIBCO), penicillin (100 U/ml) and streptomycin (100 µg/ml) at 37 °C in humidified atmosphere containing 5% CO2. […]
(§3) flask in 5 ml of culture medium. The anti-proliferative activity of the tested 3-methylbenzofurans (4a-d, 6a-c, 8a-c and 11) and 3-(morpholinomethyl)benzofurans (15a-c, 16a-b, 17a-b and 18) measured in vitro using the MTT assay. Briefly, cells were plated out in 96-well microtiter plate (0.5X10^4 cells/well) and incubated for 24 h before treatment with the tested benzofurans to allow cells to attach to the bottom of the well of the plate. Tested benzofuranswere were dissolved in DMSO at 1 mg/ml immediately before use and diluted to the appropriate volume just before addition to the cell culture. […]
(§4) added to the cells (three wells were prepared for each individual dose). Cells were incubated with […]
(§5) At the end of exposure, MTT […]
(§6) solution in PBS (5 mg/ml) was then added to all well including no cell blank and left to incubate for 90 min. The formation of formazan crystals were visually confirmed using phase contract microscopy. DMSO (100 µl/well) was added to dissolve the formazan crystals with shaking for 10 min after which the absorbance was read at 590 nm against no cell blanks on a microplate reader.
(§7) The relation between percent of surviving fraction and log drug concentration is plotted to get the survival curve for each cell line.

NCI-H23 cells = experiment: MTT anti-proliferative assay, NCI-H23; assay type: cell-based, human; conditions: mean ± SD of three experiments
Procedure: as §1, §2, §3, §4, §5, §6, §7

| Compound | IC50 (A549 cells) [µM] | IC50 (NCI-H23 cells; Homo sapiens, NCI-H23, 48 h) [µM] | melting point [°C] | IC50 (NCI-H23 cells; 48 h) [µM] |
| --- | --- | --- | --- | --- |
| COc1cccc(NC(=S)NNC(=O)c2oc3ccccc3c2C)c1 [Compound 4a, N-(3-Methoxyphenyl)-2–(3-methylbenzofuran-2-carbonyl)hydrazine-1-carbothioamide] | 10.1 ± 0.55 | 34.2 ± 1.71 | 172 to 174 | – |
| Cc1c(C(=O)NNC(=S)Nc2cccc(C(F)(F)F)c2)oc2ccccc12 [Compound 4c, 2-(3-Methylbenzofuran-2-carbonyl)-N-(3-(trifluoromethyl)phenyl)hydrazine-1-carbothioamide] | – | 24.36 ± 0.12 | 170 to 172 | – |
| Cc1c(C(=O)NNC(=S)Nc2ccc(F)cc2)oc2ccccc12 [Compound 4d, N-(4-Fluorophenyl)-2-(3-methylbenzofuran-2-carbonyl)hydrazine-1-carbothioamide] | 12.8 ± 0.7 | 67.2 ± 3.36 | 206 to 210 | – |
| COc1cccc(NC(=O)NNC(=O)c2oc3ccccc3c2C)c1 [Compound 6a, N-(3-Methoxyphenyl)-2-(3-methylbenzofuran-2-carbonyl)hydrazine-1-carboxamide] | 15.1 ± 0.83 | 56.7 ± 2.83 | 162 to 164 | – |
| COc1ccc(NC(=O)NNC(=O)c2oc3ccccc3c2C)cc1 [Compound 6b, N-(4-Methoxyphenyl)-2-(3-methylbenzofuran-2-carbonyl)hydrazine-1-carboxamide] | 12.5 ± 0.68 | 9.24 ± 0.46 | 236 to 240 | – |
| Cc1c(C(=O)NNC(=O)Nc2ccc(Cl)c(C(F)(F)F)c2)oc2ccccc12 [Compound 6c, N-(4-Chloro-3-(trifluoromethyl)phenyl)-2-(3-methylbenzofuran-2-carbonyl)hydrazine-1-carboxamide] | 47 ± 2.57 | 24.5 ± 1.23 | 240 to 242 | – |
| COc1cccc(C=NNC(=O)c2oc3ccccc3c2C)c1 [Compound 8a, N'-(3-Methoxybenzylidene)-3-methylbenzofuran-2-carbohydrazide] | 44.1 ± 2.41 | 14.9 ± 0.74 | 242 to 244 | – |
| COc1ccc(C=NNC(=O)c2oc3ccccc3c2C)cc1 [Compound 8b, N'-(4-Methoxybenzylidene)-3-methylbenzofuran-2-carbohydrazide] | 9.2 ± 0.5 | 6.15 ± 0.31 | 236 to 240 | – |
| COc1ccc(C(C)=NNC(=O)c2oc3ccccc3c2C)cc1 [Compound 8c, N'-(1-(4-Methoxyphenyl)ethylidene)-3-methylbenzofuran-2-carbohydrazide] | 16.4 ± 0.89 | 14 ± 0.7 | 160 | – |
| Cc1c(C(=O)NN=C2CCCc3ccccc32)oc2ccccc12 [Compound 11, N'-(3,4-Dihydronaphthalen-1(2H)-ylidene)-3-methylbenzofuran-2-carbohydrazide] | 30.2 ± 1.65 | 12.1 ± 0.6 | 180 to 182 | – |
| COc1ccc(NC(=S)NNC(=O)c2oc3ccccc3c2CN2CCOCC2)cc1 [Compound 15b, N-(4-Methoxyphenyl)-2-(3-(morpholinomethyl)benzofuran-2-carbonyl)hydrazine-1-carbothioamide] | 5.7 ± 0.31 | 68.9 ± 3.44 | 198 to 200 | – |
| O=C(NNC(=S)Nc1cccc(C(F)(F)F)c1)c1oc2ccccc2c1CN1CCOCC1 [Compound 15c, 2-(3-(Morpholinomethyl)benzofuran-2-carbonyl)-N-(3-(trifluoromethyl)phenyl)hydrazine-1-carbothioamide] | 6.3 ± 0.34 | 2.21 | 210 to 212 | 2.22 ± 0.11 |
| COc1ccc(NC(=O)NNC(=O)c2oc3ccccc3c2CN2CCOCC2)cc1 [Compound 16b, N-(4-Methoxyphenyl)-2-(3-(morpholinomethyl)benzofuran-2-carbonyl)hydrazine-1-carboxamide] | 18.9 ± 1.03 | 5.09 ± 0.25 | 242 to 244 | – |
| O=C(NN=Cc1ccccc1)c1oc2ccccc2c1CN1CCOCC1 [Compound 17a, N'-Benzylidene-3-(morpholinomethyl)benzofuran-2-carbohydrazide] | 6.01 ± 0.03 | 23 ± 1.15 | 174 | – |

Reference: publication PMC8128204, “Development of 3-methyl/3-(morpholinomethyl)benzofuran derivatives as novel antitumor agents towards non-small cell lung cancer cells” (Journal of Enzyme Inhibition and Medicinal Chemistry, 2021)
